According to PubChem BioAssay AID1259407 (Chemical Carcinogenesis Research Information System (CCRIS), 2018):
The source made the active and inactive calls. No rule for the calls is given here.

Test system: CCRIS mutagenicity, Ames/micronucleus/aberration tests
Assay: CCRIS mutagenicity studies
[1] = Test System: AMES SALMONELLA TYPHIMURIUM, Strain/Indicator: TA98, Metabolic Activation: NONE, Method: STANDARD PLATE
[2] = Test System: AMES SALMONELLA TYPHIMURIUM, Strain/Indicator: TA100, Metabolic Activation: NONE, Method: STANDARD PLATE
[3] = Test System: AMES SALMONELLA TYPHIMURIUM, Strain/Indicator: TA1535, Metabolic Activation: NONE, Method: STANDARD PLATE
[4] = Test System: AMES SALMONELLA TYPHIMURIUM, Strain/Indicator: TA1537, Metabolic Activation: NONE, Method: STANDARD PLATE
[5] = Test System: AMES SALMONELLA TYPHIMURIUM, Strain/Indicator: TA100, Metabolic Activation: NONE, Method: PREINCUBATION
[6] = Test System: AMES SALMONELLA TYPHIMURIUM, Strain/Indicator: TA100, Metabolic Activation: RAT, LIVER, S-9, AROCLOR 1254, Method: STANDARD PLATE

## CC[C@H]1OC(=O)[C@H](C)[C@@H](O[C@H]2C[C@@](C)(OC)[C@@H](O)[C@H](C)O2)[C@H](C)[C@@H](O[C@@H]2O[C@H](C)C[C@H](N(C)C)[C@H]2O)[C@](C)(OC)C[C@@H](C)C(=O)[C@H](C)[C@@H](O)[C@]1(C)O
End Point: AMES SALMONELLA TYPHIMURIUM, Test System: TA98, Metabolic Activation: NONE, Method: STANDARD PLATE
  mutagenic call: inactive; negative
End Point: AMES SALMONELLA TYPHIMURIUM, Test System: TA100, Metabolic Activation: NONE, Method: STANDARD PLATE
  mutagenic call: inactive; negative

## CN1CCc2cc3c(c4c2[C@H]1Cc1ccccc1-4)OCO3
Test System: AMES SALMONELLA TYPHIMURIUM, Strain/Indicator: TA98, Metabolic Activation: RAT, LIVER, S-9, PHENOBARBITAL AND BETA-NAPHTHOFLAVONE, Method: PREINCUBATION
  mutagenic call: active; positive
Test System: AMES SALMONELLA TYPHIMURIUM, Strain/Indicator: TA100, Metabolic Activation: RAT, LIVER, S-9, PHENOBARBITAL AND BETA-NAPHTHOFLAVONE, Method: PREINCUBATION
  mutagenic call: active; positive

## CN(N=O)C(=O)c1c(N(C)N=O)ncn1C
[1]
  mutagenic call: inactive; negative
Test System: AMES SALMONELLA TYPHIMURIUM, Strain/Indicator: TA98, Metabolic Activation: S-9, Method: STANDARD PLATE
  mutagenic call: inactive; negative
[2]
  mutagenic call: active; positive
Test System: AMES SALMONELLA TYPHIMURIUM, Strain/Indicator: TA100, Metabolic Activation: S-9, Method: STANDARD PLATE
  mutagenic call: active; positive
Test System: AMES SALMONELLA TYPHIMURIUM, Strain/Indicator: TA102, Metabolic Activation: NONE, Method: STANDARD PLATE
  mutagenic call: active; positive
Test System: AMES SALMONELLA TYPHIMURIUM, Strain/Indicator: TA102, Metabolic Activation: S-9, Method: STANDARD PLATE
  mutagenic call: active; positive
[3]
  mutagenic call: active; positive
Test System: AMES SALMONELLA TYPHIMURIUM, Strain/Indicator: TA1535, Metabolic Activation: S-9, Method: STANDARD PLATE
  mutagenic call: active; positive
[4]
  mutagenic call: inactive; negative
Test System: AMES SALMONELLA TYPHIMURIUM, Strain/Indicator: TA1537, Metabolic Activation: S-9, Method: STANDARD PLATE
  mutagenic call: inactive; negative

## CCOC(=O)c1ccccc1N
Test System: AMES SALMONELLA TYPHIMURIUM, Strain/Indicator: TA98, Metabolic Activation: HAMSTER, LIVER, S-9, AROCLOR 1254 (10%), Method: PREINCUBATION
  mutagenic call: inactive; negative
Test System: AMES SALMONELLA TYPHIMURIUM, Strain/Indicator: TA98, Metabolic Activation: NONE, Method: PREINCUBATION
  mutagenic call: inactive; negative
Test System: AMES SALMONELLA TYPHIMURIUM, Strain/Indicator: TA98, Metabolic Activation: RAT, LIVER, S-9, AROCLOR 1254 (10%), Method: PREINCUBATION
  mutagenic call: inactive; negative
Test System: AMES SALMONELLA TYPHIMURIUM, Strain/Indicator: TA100, Metabolic Activation: HAMSTER, LIVER, S-9, AROCLOR 1254 (10%), Method: PREINCUBATION
  mutagenic call: inactive; negative
[5]
  mutagenic call: inactive; negative
Test System: AMES SALMONELLA TYPHIMURIUM, Strain/Indicator: TA100, Metabolic Activation: RAT, LIVER, S-9, AROCLOR 1254 (10%), Method: PREINCUBATION
  mutagenic call: inactive; negative
Test System: AMES SALMONELLA TYPHIMURIUM, Strain/Indicator: TA1535, Metabolic Activation: HAMSTER, LIVER, S-9, AROCLOR 1254 (10%), Method: PREINCUBATION
  mutagenic call: inactive; negative
Test System: AMES SALMONELLA TYPHIMURIUM, Strain/Indicator: TA1535, Metabolic Activation: NONE, Method: PREINCUBATION
  mutagenic call: inactive; negative
Test System: AMES SALMONELLA TYPHIMURIUM, Strain/Indicator: TA1535, Metabolic Activation: RAT, LIVER, S-9, AROCLOR 1254 (10%), Method: PREINCUBATION
  mutagenic call: inactive; negative
Test System: AMES SALMONELLA TYPHIMURIUM, Strain/Indicator: TA1537, Metabolic Activation: HAMSTER, LIVER, S-9, AROCLOR 1254 (10%), Method: PREINCUBATION
  mutagenic call: inactive; negative
Test System: AMES SALMONELLA TYPHIMURIUM, Strain/Indicator: TA1537, Metabolic Activation: NONE, Method: PREINCUBATION
  mutagenic call: inactive; negative
Test System: AMES SALMONELLA TYPHIMURIUM, Strain/Indicator: TA1537, Metabolic Activation: RAT, LIVER, S-9, AROCLOR 1254 (10%), Method: PREINCUBATION
  mutagenic call: inactive; negative

## c1cc2ccc3nc4ccccc4c4ccc(c1)c2c34
Test System: AMES SALMONELLA TYPHIMURIUM, Strain/Indicator: TA98, Metabolic Activation: NONE
  mutagenic call: inactive; negative
Test System: AMES SALMONELLA TYPHIMURIUM, Strain/Indicator: TA98, Metabolic Activation: S-9
  mutagenic call: active; positive
Test System: AMES SALMONELLA TYPHIMURIUM, Strain/Indicator: TA100, Metabolic Activation: NONE
  mutagenic call: inactive; negative
Test System: AMES SALMONELLA TYPHIMURIUM, Strain/Indicator: TA100, Metabolic Activation: S-9
  mutagenic call: active; positive

## CCCCOc1cc(OC)ccc1C(=O)NOC(C)=O
[2]
  mutagenic call: active; positive
Test System: AMES SALMONELLA TYPHIMURIUM, Strain/Indicator: TA100, Metabolic Activation: RAT, S-9, AROCLOR, Method: STANDARD PLATE
  mutagenic call: active; positive

## CC(C)Nc1nc(Cl)nc(NCC(=O)O)n1
End Point: In vivo micronucleus, Test System: Bone marrow erythrocytes, Species: Mouse, Strain/Sex: Crl:CD-1, Route: Gavage
  mutagenic call: inactive; negative; proportion of pces per 1000 erythrocytes depressed

## O=[N+]([O-])c1cccc(S(=O)(=O)OC[C@@H]2CO2)c1
[2]
  mutagenic call: active; positive

## OC1C=C2c3cc4ccccc4cc3-c3cccc(c32)C1O (stereo not given)
[6]
  mutagenic call: active; positive

## N[C@@H]1C[C@H]1c1ccccc1
[1]
  mutagenic call: inactive; negative
Test System: AMES SALMONELLA TYPHIMURIUM, Strain/Indicator: TA98, Metabolic Activation: RAT, LIVER, S-9, AROCLOR 1254, Method: STANDARD PLATE
  mutagenic call: inactive; negative
[2]
  mutagenic call: inactive; negative
[6]
  mutagenic call: inactive; negative
[3]
  mutagenic call: inactive; negative
Test System: AMES SALMONELLA TYPHIMURIUM, Strain/Indicator: TA1535, Metabolic Activation: RAT, LIVER, S-9, AROCLOR 1254, Method: STANDARD PLATE
  mutagenic call: inactive; negative
[4]
  mutagenic call: inactive; negative
Test System: AMES SALMONELLA TYPHIMURIUM, Strain/Indicator: TA1537, Metabolic Activation: RAT, LIVER, S-9, AROCLOR 1254, Method: STANDARD PLATE
  mutagenic call: inactive; negative

## Nc1nc2c(ncn2CCC(CO)CO)c(=O)[nH]1
End Point: IN VITRO CHROMOSOMAL ABERRATIONS, Test System: CHO CELLS (CHO-HSVTK), Metabolic Activation: NONE
  mutagenic call: active; positive (pulverized chromosome and condensation defects); concentration chosen

## Cc1ccc2ccc3c4ccccc4cc4ccc1c2c43
Test System: AMES SALMONELLA TYPHIMURIUM, Strain/Indicator: TA100, Metabolic Activation: RAT, INTACT HEPATOCYTES, AROCLOR 1254, Method: PREINCUBATION
  mutagenic call: active; positive
Test System: AMES SALMONELLA TYPHIMURIUM, Strain/Indicator: TA100, Metabolic Activation: RAT, NADPH-FORTIFIED HOMOGENIZED HEPATOCYTES, AROCLOR 1254, Method: PREINCUBATION
  mutagenic call: active; positive

## O=c1c(O[C@@H]2O[C@H](CO)[C@@H](O)[C@H](O)[C@H]2O)c(-c2ccc(O)c(O)c2)oc2cc(O)cc(O)c12
Test System: AMes Salmonella typhimurium, Strain/Indicator: TA98, Metabolic Activation: None, Method: Standard plate
  mutagenic call: active; positive
Test System: Ames Salmonella typhimurium, Strain/Indicator: 98, Metabolic Activation: Rat, Liver, S-9, Aroclor 1254, Method: Standard plate
  mutagenic call: active; positive
Test System: Ames Salmonella typhimurium, Strain/Indicator: TA100, Metabolic Activation: None, Method: Standard plate
  mutagenic call: inactive; negative
Test System: Ames Salmonella typhimurium, Strain/Indicator: TA100, Metabolic Activation: Rat, Liver, S-9, Aroclor 1254, Method: Standard plate
  mutagenic call: active; positive

## Oc1cccc2ccc3[nH]c4ccc5ccccc5c4c3c12
Test System: AMES SALMONELLA TYPHIMURIUM, Strain/Indicator: TM677, Metabolic Activation: NONE, Method: PREINCUBATION
  mutagenic call: inactive; negative
Test System: AMES SALMONELLA TYPHIMURIUM, Strain/Indicator: TM677, Metabolic Activation: RAT, LIVER, S-9, 3-METHYLCHOLANTHRENE (1%), Method: PREINCUBATION
  mutagenic call: inactive; negative
Test System: AMES SALMONELLA TYPHIMURIUM, Strain/Indicator: TM677, Metabolic Activation: RAT, LIVER, S-9, 3-METHYLCHOLANTHRENE (10%), Method: PREINCUBATION
  mutagenic call: inactive; negative
Test System: AMES SALMONELLA TYPHIMURIUM, Strain/Indicator: TM677, Metabolic Activation: RAT, LIVER, S-9, AROCLOR 1254 (10%), Method: PREINCUBATION
  mutagenic call: inactive; negative

## O=NSCCO
[5]
  mutagenic call: active; positive
